Results on eleven compounds are retold here after PubChem BioAssay AID1259407 (Chemical Carcinogenesis Research Information System (CCRIS), 2018).

Molecules are shown by their SMILES. The source made the active and inactive calls. No rule for the calls is given here.

The series deals with CCRIS mutagenicity, Ames/micronucleus/aberration tests. The series is described as follows: CCRIS mutagenicity studies.
Where [1] appears, read: Test System: AMES SALMONELLA TYPHIMURIUM, Strain/Indicator: TA98, Metabolic Activation: NONE, Method: STANDARD PLATE.
Where [2] appears, read: Test System: AMES SALMONELLA TYPHIMURIUM, Strain/Indicator: TA100, Metabolic Activation: NONE, Method: STANDARD PLATE.
Where [3] appears, read: Test System: AMES SALMONELLA TYPHIMURIUM, Strain/Indicator: TA1535, Metabolic Activation: NONE, Method: STANDARD PLATE.
Setting [4] is: Test System: AMES SALMONELLA TYPHIMURIUM, Strain/Indicator: TA98, Metabolic Activation: RAT, LIVER, S-9, AROCLOR 1254, Method: STANDARD PLATE.

As for `C#C[C@]1(O)CC[C@H]2[C@@H]3CCc4cc(OC)ccc4[C@H]3CC[C@@]21C`, the mutagenic call (End Point: IN VITRO CHROMOSOMAL ABERRATIONS, Test System: HUMAN PERIPHERAL LYMPHOCYTES, Metabolic Activation: NONE) is “active; positive (total aberrations excluding gaps); positive at higher dose levels”; the mutagenic call (End Point: IN VIVO CHROMOSOMAL ABERRATIONS, Test System: BONE MARROW CELLS, Species: MOUSE, Strain/Sex: SWISS/MALE, Route: IP INJECTION (ONCE)) was “active; positive”; the mutagenic call (End Point: IN VIVO MICRONUCLEUS, Test System: BONE MARROW POLYCHROMATIC ERYTHROCYTES, Species: MOUSE, Strain/Sex: SWISS/MALE, Route: IP INJECTION (SINGLE DOSE)) is “active; positive”; the mutagenic call (Test System: AMES SALMONELLA TYPHIMURIUM, Strain/Indicator: TA97A, Metabolic Activation: NONE, Method: STANDARD PLATE) is “inactive; negative”; the mutagenic call (Test System: AMES SALMONELLA TYPHIMURIUM, Strain/Indicator: TA97A, Metabolic Activation: RAT, LIVER, S-9, PHENOBARBITONE, Method: PREINCUBATION) is “inactive; negative”; the mutagenic call under setting [1] is “inactive; negative”. Besides, the mutagenic call is “inactive; negative” (Test System: AMES SALMONELLA TYPHIMURIUM, Strain/Indicator: TA98, Metabolic Activation: RAT, LIVER, S-9, PHENOBARBITONE, Method: PREINCUBATION); “inactive; negative” under setting [2]; “inactive; negative” (Test System: AMES SALMONELLA TYPHIMURIUM, Strain/Indicator: TA100, Metabolic Activation: RAT, LIVER, S-9, PHENOBARBITONE, Method: PREINCUBATION); “inactive; negative” under setting [3]; “inactive; negative” (Test System: AMES SALMONELLA TYPHIMURIUM, Strain/Indicator: TA1535, Metabolic Activation: RAT, LIVER, S-9, PHENOBARBITONE, Method: PREINCUBATION); “inactive; negative” (Test System: HOST-MEDIATED ASSAY WITH SALMONELLA, Strain/Indicator: TA97A, Metabolic Activation: MALE SWISS MOUSE, SALMONELLA ADMINISTERED 4 HR AFTER 2ND INJECTION: SACRIFICE 2 HR LATER, Method: 2 INJECTIONS AT 12 HR INTERVAL). The mutagenic call (Test System: HOST-MEDIATED ASSAY WITH SALMONELLA, Strain/Indicator: TA98, Metabolic Activation: MALE SWISS MOUSE, SALMONELLA ADMINISTERED 4 HR AFTER 2ND INJECTION: SACRIFICE 2 HR LATER, Method: 2 INJECTIONS AT 12 HR INTERVAL) is “inactive; negative”; the mutagenic call (Test System: HOST-MEDIATED ASSAY WITH SALMONELLA, Strain/Indicator: TA100, Metabolic Activation: MALE SWISS MOUSE, SALMONELLA ADMINISTERED 4 HR AFTER 2ND INJECTION: SACRIFICE 2 HR LATER, Method: 2 INJECTIONS AT 12 HR INTERVAL) is “inactive; negative”; the mutagenic call (Test System: HOST-MEDIATED ASSAY WITH SALMONELLA, Strain/Indicator: TA1535, Metabolic Activation: MALE SWISS MOUSE, SALMONELLA ADMINISTERED 4 HR AFTER 2ND INJECTION: SACRIFICE 2 HR LATER, Method: 2 INJECTIONS AT 12 HR INTERVAL) was “inactive; negative”.
In the case of `N=c1cc2oc3cc(N)ccc3nc-2c2ccccc12`, the mutagenic call (Test System: AMES SALMONELLA TYPHIMURIUM, Strain/Indicator: TA1538, Metabolic Activation: NONE, Method: STANDARD PLATE) was “inactive; negative” and the mutagenic call (Test System: AMES SALMONELLA TYPHIMURIUM, Strain/Indicator: TA1538, Metabolic Activation: RAT, LIVER, S-9, AROCLOR 1254, Method: STANDARD PLATE) is “active; positive”.
With `COC(=O)Nc1nc2ccc(C(=O)c3ccccc3)cc2[nH]1`, the mutagenic call by setting is: under setting [1], “inactive; negative”; under setting [4], “active; positive”; under setting [2], “inactive; negative”.
With `CC(C)=CC1C(C(=O)OCc2cccc(Oc3ccccc3)c2)C1(C)C` (configuration not stated), the mutagenic call is “inactive; negative” (Test System: AMES SALMONELLA TYPHIMURIUM, Strain/Indicator: TA98); “inactive; negative” (Test System: AMES SALMONELLA TYPHIMURIUM, Strain/Indicator: TA98, Metabolic Activation: NONE); “inactive; negative” under setting [1]; “inactive; negative” under setting [4]; “active; positive” (Test System: AMES SALMONELLA TYPHIMURIUM, Strain/Indicator: TA100); “active; positive” (Test System: AMES SALMONELLA TYPHIMURIUM, Strain/Indicator: TA100, Metabolic Activation: NONE). The mutagenic call under setting [2] was “inactive; negative”; the mutagenic call (Test System: AMES SALMONELLA TYPHIMURIUM, Strain/Indicator: TA100, Metabolic Activation: RAT, LIVER, S-9, AROCLOR 1254, Method: STANDARD PLATE) was “inactive; negative”; the mutagenic call under setting [3] is “inactive; negative”; the mutagenic call (Test System: AMES SALMONELLA TYPHIMURIUM, Strain/Indicator: TA1535, Metabolic Activation: RAT, LIVER, S-9, AROCLOR 1254, Method: STANDARD PLATE) is “inactive; negative”; the mutagenic call (Test System: AMES SALMONELLA TYPHIMURIUM, Strain/Indicator: TA1537, Metabolic Activation: NONE, Method: STANDARD PLATE) is “inactive; negative”; the mutagenic call (Test System: AMES SALMONELLA TYPHIMURIUM, Strain/Indicator: TA1537, Metabolic Activation: RAT, LIVER, S-9, AROCLOR 1254, Method: STANDARD PLATE) was “inactive; negative”. The mutagenic call reads like this: (Test System: E. COLI, Strain/Indicator: WP2, Metabolic Activation: NONE, Method: STANDARD PLATE) “inactive; negative”; (Test System: E. COLI, Strain/Indicator: WP2, Metabolic Activation: RAT, LIVER, S-9, AROCLOR 1254, Method: STANDARD PLATE) “inactive; negative”.
As for `Cc1cc2ccccc2c2cc3ccccc3cc12`, the mutagenic call is “active; positive” (Test System: AMES SALMONELLA TYPHIMURIUM, Strain/Indicator: TA100, Metabolic Activation: RAT, INTACT HEPATOCYTES, AROCLOR 1254, Method: PREINCUBATION); “active; positive” (Test System: AMES SALMONELLA TYPHIMURIUM, Strain/Indicator: TA100, Metabolic Activation: RAT, LIVER, S-9, AROCLOR 1254, Method: PREINCUBATION); “active; positive” (Test System: AMES SALMONELLA TYPHIMURIUM, Strain/Indicator: TA100, Metabolic Activation: RAT, NADPH-FORTIFIED HOMOGENIZED HEPATOCYTES, AROCLOR 1254, Method: PREINCUBATION); “active; positive” (Test System: AMES SALMONELLA TYPHIMURIUM, Strain/Indicator: TA100, Metabolic Activation: RAT, SONICATED HEPATOCYTES, AROCLOR 1254, Method: PREINCUBATION).
Take `Cn1cc(C(=O)O)c(=O)c2ccc(/C=C/c3ccc([N+](=O)[O-])o3)nc21`: for the setting “Test System: AMES SALMONELLA TYPHIMURIUM, Strain/Indicator: TA100, Metabolic Activation: RAT, LIVER, S-9, KC500 OR PHENOBARBITAL, Method: LIQUID SUSPENSION”, the mutagenic call is “active; positive”.
With `CN(C)Nc1ccn([C@@H]2O[C@H](CO)[C@@H](O)[C@H]2O)c(=O)n1`, the mutagenic call (Test System: CHINESE HAMSTER V-79, Strain/Indicator: V-79/6-THIOGUANINE, Metabolic Activation: NONE, Method: REPLATING) is “inactive; negative”.
Turning to `Nc1c(Cl)cc(-c2cc(Cl)c(N)c(Cl)c2)cc1Cl`, the mutagenic call (Test System: UDS HUMAN CELLS, Strain/Indicator: THY INCORP (NON-S-PHASE), Metabolic Activation: RAT, LIVER, S-9, PHENOBARBITAL, Method: LIQUID SCINTILLATION COUNTING) was “active; positive”.
Consider `CN(Cc1cccc(Cl)c1)N=O`, for which the mutagenic call reads like this: (Test System: AMES SALMONELLA TYPHIMURIUM, Strain/Indicator: TA1535, Metabolic Activation: HAMSTER, LIVER, S-9, AROCLOR 1254, Method: STANDARD PLATE) “active; positive”; under setting [3], “inactive; negative”.
For the compound `ClCc1cc2c3ccccc3cc3ccc4cccc1c4c32`, the mutagenic call reads like this: under setting [1], “active; positive”; under setting [2], “active; positive”.
Turning to `C1=CC2=C3OC3=C3c4ccc5ccccc5c4CC(=C1)C23` (configuration not stated), the mutagenic call reads like this: under setting [1], “active; positive”; under setting [4], “active; positive”.
